Measurements reported in ChEMBL document CHEMBL1201862, “PubChem BioAssay data set” (2004).
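Following 48 hours of exposure in 96-well plates, responses at five concentrations were used to interpolate endpoints linearly. GI50 marks 50% less growth.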 Active and inactive are the calls of the source. No stated cut-off is given here; in the data, active = GI50 up to about 1.1 µM and inactive = higher.

How the values were obtained:
Test in all cases: NCI-60 cell line screen, 48 h
COLO 205 = system: COLO 205
HOP-92 = system: HOP-92
MDA-MB-435 = system: MDA-MB-435
NCI-H460 = system: NCI-H460
786-0 = system: 786-0
A498 = system: A498
A549 = system: A549
ACHN = system: ACHN
CCRF-CEM = system: CCRF-CEM
DU-145 = system: DU-145
EKVX = system: EKVX
HCC 2998 = system: HCC 2998
HCT-116 = system: HCT-116
HCT-15 = system: HCT-15
HOP-62 = system: HOP-62
HT-29 = system: HT-29
IGROV-1 = system: IGROV-1
K562 = system: K562
KM12 = system: KM12
MCF7 = system: MCF7
MDA-MB-231 = system: MDA-MB-231
MOLT-4 = system: MOLT-4
NCI-H226 = system: NCI-H226
NCI/ADR-RES = system: NCI/ADR-RES
OVCAR-4 = system: OVCAR-4
OVCAR-5 = system: OVCAR-5
PC-3 = system: PC-3
RPMI-8226 = system: RPMI-8226
RXF 393 = system: RXF 393
SF-268 = system: SF-268
SF-295 = system: SF-295
SF-539 = system: SF-539
SK-OV-3 = system: SK-OV-3
SN12C = system: SN12C
SNB-75 = system: SNB-75
SR = system: SR
SW-620 = system: SW-620
T47D = system: T47D
TK-10 = system: TK-10
U-251 = system: U-251
UO-31 = system: UO-31
CAKI-1 = system: CAKI-1
HL-60 = system: HL-60
LOX IMVI = system: LOX IMVI
M14 = system: M14
MDA-N = system: MDA-N
Malme-3M = system: Malme-3M
NCI-H23 = system: NCI-H23
OVCAR-8 = system: OVCAR-8
SK-MEL-28 = system: SK-MEL-28
SK-MEL-5 = system: SK-MEL-5
UACC-257 = system: UACC-257
UACC-62 = system: UACC-62
NCI-H522 = system: NCI-H522
OVCAR-3 = system: OVCAR-3
SK-MEL-2 = system: SK-MEL-2
SNB-19 = system: SNB-19

Measured: GI50

O=C(Nc1nccs1)c1cc2c(cc1Cl)Sc1nccn1S2(=O)=O
inactive: COLO 205 16.7 µM | HOP-92 15.3 µM | MDA-MB-435 17.2 µM | NCI-H460 16 µM

CC(=O)OC(C)c1cc2c(s1)C(=O)c1c(C(C)OC(C)=O)csc1C2=O (stereo not drawn)
active: DU-145 0.586 µM | K562 1.01 µM | MCF7 0.662 µM | NCI-H460 0.5 µM | SF-539 1.11 µM | SN12C 0.682 µM | SW-620 0.0545 µM
1.58 µM: HCT-15
inactive: 786-0 1.89 µM | A498 2.13 µM | A549 1.97 µM | ACHN 1.42 µM | CCRF-CEM 1.49 µM | COLO 205 1.91 µM | EKVX 1.74 µM | HCC 2998 1.73 µM | HCT-116 1.66 µM | HOP-62 1.24 µM | HOP-92 3.29 µM | HT-29 2.21 µM | IGROV-1 1.68 µM | KM12 1.25 µM | MDA-MB-231 1.55 µM | MOLT-4 1.95 µM | NCI-H226 1.37 µM | NCI/ADR-RES 1.26 µM | OVCAR-4 1.3 µM | OVCAR-5 1.97 µM | PC-3 2.3 µM | RPMI-8226 1.43 µM | RXF 393 1.31 µM | SF-268 3.01 µM | SF-295 1.28 µM | SK-OV-3 3.6 µM | SNB-75 2.74 µM | SR > 100 µM | T47D 1.85 µM | TK-10 2.29 µM | U-251 1.18 µM | UO-31 1.55 µM

Cn1c(=O)c2nc(Nc3ccccc3)[nH]c2n(C)c1=O
> 10 µM: HCT-15
inactive: 786-0 > 10 µM | A549 > 10 µM | CAKI-1 > 10 µM | CCRF-CEM > 10 µM | COLO 205 > 10 µM | DU-145 > 10 µM | EKVX > 10 µM | HCC 2998 > 10 µM | HL-60 > 10 µM | HOP-62 > 10 µM | HOP-92 > 10 µM | HT-29 > 10 µM | IGROV-1 > 10 µM | K562 > 10 µM | KM12 > 10 µM | LOX IMVI > 10 µM | M14 > 10 µM | MCF7 > 10 µM | MDA-MB-231 > 10 µM | MDA-MB-435 > 10 µM | MDA-N > 10 µM | MOLT-4 > 10 µM | Malme-3M > 10 µM | NCI-H23 > 10 µM | OVCAR-4 > 10 µM | OVCAR-8 > 10 µM | PC-3 > 10 µM | RPMI-8226 > 10 µM | RXF 393 > 10 µM | SF-268 > 10 µM | SF-295 > 10 µM | SK-MEL-28 > 10 µM | SK-MEL-5 > 10 µM | SK-OV-3 > 10 µM | SN12C > 10 µM | SNB-75 > 10 µM | SR > 10 µM | SW-620 > 10 µM | T47D > 10 µM | TK-10 > 10 µM | UACC-257 > 10 µM | UACC-62 > 10 µM

CCOC(=O)C(NC(=O)CC)(C(F)(F)F)P(=O)(OCC)OCC (stereo not drawn)
> 100 µM: HCT-15
inactive: A498 > 100 µM | ACHN > 100 µM | CCRF-CEM > 100 µM | DU-145 > 100 µM | EKVX > 100 µM | HCC 2998 > 100 µM | HCT-116 > 100 µM | HL-60 > 100 µM | HOP-62 > 100 µM | HT-29 > 100 µM | K562 > 100 µM | M14 > 100 µM | MCF7 > 100 µM | MDA-MB-231 > 100 µM | MDA-MB-435 > 100 µM | MDA-N > 100 µM | MOLT-4 > 100 µM | Malme-3M > 100 µM | NCI-H522 > 100 µM | RPMI-8226 > 100 µM | SF-268 > 100 µM | SF-539 > 100 µM | SK-MEL-28 > 100 µM | SK-OV-3 > 100 µM | SN12C > 100 µM | SNB-75 > 100 µM | SR > 100 µM | T47D > 100 µM | U-251 > 100 µM | UACC-62 > 100 µM | UO-31 > 100 µM

N#CC(C#N)=Cc1ccc2c(c1)OC(Cl)O2 (stereo not drawn)
19.9 µM: HCT-15
inactive: 786-0 20.3 µM | A549 38.8 µM | ACHN 19.9 µM | CAKI-1 > 100 µM | CCRF-CEM 20.4 µM | COLO 205 24.3 µM | DU-145 27.7 µM | EKVX 27.4 µM | HCT-116 18.9 µM | HL-60 6.92 µM | HT-29 23.8 µM | K562 11.8 µM | KM12 20.4 µM | LOX IMVI 18.4 µM | M14 21.4 µM | MCF7 24.4 µM | MDA-MB-435 14.3 µM | MDA-N 16 µM | MOLT-4 29.8 µM | Malme-3M 18.1 µM | NCI-H226 20.2 µM | NCI-H23 31.1 µM | NCI-H522 > 10 µM | NCI/ADR-RES 42.1 µM | OVCAR-3 22.1 µM | OVCAR-4 42.2 µM | OVCAR-5 20.9 µM | OVCAR-8 31.6 µM | PC-3 23.2 µM | RPMI-8226 17.8 µM | RXF 393 28.5 µM | SF-268 29.4 µM | SF-295 19.3 µM | SF-539 20.4 µM | SK-MEL-28 19.9 µM | SK-MEL-2 21.9 µM | SK-MEL-5 19.1 µM | SK-OV-3 28.5 µM | SN12C 24.9 µM | SNB-19 26.4 µM | SNB-75 25.8 µM | SW-620 > 10 µM | T47D 32.4 µM | TK-10 29.6 µM | U-251 23.2 µM | UACC-257 21.7 µM | UACC-62 22.5 µM | UO-31 16.9 µM

CCC1=[N+]([O-])C(C)(C)NC1(C)C
inactive: A549 > 10 µM | ACHN > 10 µM | CAKI-1 > 10 µM | COLO 205 > 10 µM | DU-145 > 10 µM | EKVX > 10 µM | HCT-116 > 10 µM | HOP-92 > 10 µM | HT-29 > 10 µM | IGROV-1 > 10 µM | KM12 > 10 µM | M14 > 10 µM | MDA-MB-231 > 10 µM | MDA-MB-435 > 10 µM | MDA-N > 10 µM | NCI-H226 4.95 µM | NCI-H23 > 10 µM | NCI/ADR-RES > 10 µM | OVCAR-3 > 10 µM | OVCAR-4 > 10 µM | OVCAR-5 > 10 µM | OVCAR-8 > 10 µM | PC-3 > 10 µM | RXF 393 > 10 µM | SF-268 > 10 µM | SF-295 > 10 µM | SF-539 > 10 µM | SK-MEL-28 > 10 µM | SK-MEL-5 > 10 µM | SN12C > 10 µM | SNB-19 > 10 µM | SNB-75 > 10 µM | SW-620 > 10 µM | TK-10 > 10 µM | U-251 > 10 µM
> 10 µM: HCT-15

COc1ccc(/C=C\c2cc(OC)c(OC)c(OC)c2)cc1OC(=O)C(N)CCC(=O)O (stereo not drawn)
active: 786-0 0.000792 µM | A549 0.000944 µM | MCF7 0.00187 µM | NCI-H226 0.00123 µM
inactive: HT-29 2.34 µM

C=CCNc1nc2c(N)ncnc2s1
inactive: 786-0 > 10 µM | A549 > 10 µM | ACHN > 10 µM | CAKI-1 > 10 µM | CCRF-CEM > 10 µM | COLO 205 > 10 µM | HL-60 > 10 µM | HOP-62 > 10 µM | HOP-92 > 10 µM | IGROV-1 > 10 µM | K562 > 10 µM | M14 > 10 µM | MCF7 > 10 µM | MDA-MB-435 > 10 µM | MOLT-4 > 10 µM | Malme-3M > 10 µM | NCI-H23 > 10 µM | NCI-H460 > 10 µM | NCI/ADR-RES > 10 µM | OVCAR-4 > 10 µM | OVCAR-5 > 10 µM | RPMI-8226 > 10 µM | RXF 393 > 10 µM | SF-268 > 10 µM | SK-MEL-28 > 10 µM | SK-MEL-2 > 10 µM | SK-MEL-5 > 10 µM | SK-OV-3 > 10 µM | SNB-75 > 10 µM | SR > 10 µM | SW-620 > 10 µM | T47D > 10 µM | U-251 > 10 µM | UACC-62 > 10 µM
